Data: US20250230193A1, “CYCLIC COMPOUND HAVING SELECTIVE KRAS INHIBITORY EFFECT ON HRAS AND NRAS” (CHUGAI SEIYAKU KABUSHIKI KAISHA, priority 2022, published 2025)

Tests used:
[1] = target: GDP-bound NRAS wild-type protein (Homo sapiens, UniProt P01111); experiment: Binding to NRAS by surface plasmon resonance (SPR), Single Cycle Kinetics; conditions: SPR; KD ratio class
[2] = target: GDP-bound HRAS wild-type protein (Homo sapiens, UniProt P01112); experiment: Binding to HRAS by surface plasmon resonance (SPR), Single Cycle Kinetics; conditions: SPR; KD ratio class
GDP-bound HRAS wild-type protein, sequence (P01112 whole entry): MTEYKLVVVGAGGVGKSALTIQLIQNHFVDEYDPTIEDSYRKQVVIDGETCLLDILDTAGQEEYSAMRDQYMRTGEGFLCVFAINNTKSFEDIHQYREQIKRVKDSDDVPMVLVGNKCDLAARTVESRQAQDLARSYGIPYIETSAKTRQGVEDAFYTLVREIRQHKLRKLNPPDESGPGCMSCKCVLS

[3] = system: human lung cancer strain NCI-H441; experiment: cells; conditions: NCI-H441, 96 h, read-out: NCI-H441 IC50 (nM)

GDP-bound NRAS wild-type protein, sequence (P01111 whole entry): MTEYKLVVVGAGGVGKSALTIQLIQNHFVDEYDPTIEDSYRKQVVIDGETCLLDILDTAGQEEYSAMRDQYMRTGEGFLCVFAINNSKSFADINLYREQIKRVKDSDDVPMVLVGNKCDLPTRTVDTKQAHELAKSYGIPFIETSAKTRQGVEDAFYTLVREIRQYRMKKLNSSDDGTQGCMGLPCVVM

IC50 [3]	Compound	NRAS/KRAS (ratio of KD value for GDP-bound NRAS wild-type protein to KD value for KRAS) [1]	HRAS/KRAS (ratio of KD value for GDP-bound HRAS wild-type protein to KD value for KRAS) [2]
48.8 nM	CCO[C@@H]1C[C@H]2C(=O)NC3(CC(C)(C)C3)C(=O)N(C)[C@@H](C3CCCC3)C(=O)N(C)[C@@H](C(C)C)CC(=O)N(C)[C@@H](CC3CC3)C(=O)N[C@@H]([C@@H](C)CC)C(=O)N(C)CC(=O)N(C)[C@H]3C/C=C\CCN(C3=O)[C@@H](Cc3ccc(C(F)(F)F)cc3)C(=O)N(C)CC(=O)N[C@@H](CCc3cc(F)c(C(F)(F)F)c(F)c3)C(=O)N2C1 [PP1594]	A (a compound having 10 or more and less than 20 is denoted as A)	A (a compound having 10 or more and less than 20 is denoted as A)
142 nM	CCO[C@@H]1C[C@H]2C(=O)NC3(CCC3)C(=O)N(C)[C@@H](C3CCCC3)C(=O)N(C)[C@H](C)CC(=O)N(C)[C@@H](CC(C)C)C(=O)N[C@@H]([C@@H](C)CC)C(=O)N(C)CC(=O)N(C)[C@H]3C/C=C\CCN(C3=O)[C@@H](Cc3ccc(F)cc3)C(=O)N(C)CC(=O)N[C@@H](CCc3cc(F)c(C(F)(F)F)c(F)c3)C(=O)N2C1 [PP1494]	B (a compound having 3 or more and less than 10 is denoted as B)	B (a compound having 3 or more and less than 10 is denoted as B)

The next lines start with the compound.

Compound	IC50 [3]	NRAS/KRAS (ratio of KD value for GDP-bound NRAS wild-type protein to KD value for KRAS) [1]	HRAS/KRAS (ratio of KD value for GDP-bound HRAS wild-type protein to KD value for KRAS) [2]
CCO[C@@H]1C[C@H]2C(=O)NC3(CCC3)C(=O)N(C)[C@@H](C3CCCC3)C(=O)N(C)[C@H](C(=O)N3CCC3)CC(=O)N(C)[C@@H](CC)C(=O)N[C@@H]([C@@H](C)CC)C(=O)N(C)CC(=O)N(C)[C@H]3C/C=C\CCN(C3=O)[C@@H](CC3CCCCC3)C(=O)N(C)CC(=O)N[C@@H](CCc3cc(F)c(C(F)(F)F)c(F)c3)C(=O)N2C1 [PP1445]	92.8 nM	A (a compound having 10 or more and less than 20 is denoted as A)	A (a compound having 10 or more and less than 20 is denoted as A)
CCO[C@@H]1C[C@H]2C(=O)NC3(CCC3)C(=O)N(C)[C@@H](C3CCCC3)C(=O)N(C)[C@H](C(=O)N(C)C)CC(=O)N(C)[C@@H](CC)C(=O)N[C@@H]([C@@H](C)CC)C(=O)N(C)CC(=O)N(C)[C@H]3C/C=C\CCN(C3=O)[C@@H](Cc3ccc(C(F)(F)F)cc3)C(=O)N(C)CC(=O)N[C@@H](CCc3ccc(C(F)(F)F)c(C)c3)C(=O)N2C1 [PP1265]	14.1 nM	A (a compound having 10 or more and less than 20 is denoted as A)	B (a compound having 3 or more and less than 10 is denoted as B)
CCO[C@@H]1C[C@H]2C(=O)NC3(CCC3)C(=O)N(C)[C@@H](C3CCCC3)C(=O)N(C)[C@H](C(=O)N3CCOCC3)CC(=O)N(C)[C@@H](CC3CC3)C(=O)N[C@@H]([C@@H](C)CC)C(=O)N(C)CC(=O)N(C)[C@H]3C/C=C\CCN(C3=O)[C@@H](Cc3ccc(C)cc3)C(=O)N(C)CC(=O)N[C@@H](CCc3cc(F)c(C(F)(F)F)c(F)c3)C(=O)N2C1 [PP1408]	37.6 nM	A (a compound having 10 or more and less than 20 is denoted as A)	A (a compound having 10 or more and less than 20 is denoted as A)
CC[C@H](C)[C@@H]1NC(=O)[C@H](CC)N(C)C(=O)C[C@@H](C(=O)N(C)C)N(C)C(=O)[C@H](C2CCCC2)N(C)C(=O)C2(CCCC2)NC(=O)[C@@H]2CCCN2C(=O)[C@H](CCc2cc(F)c(C(F)(F)F)c(F)c2)NC(=O)CN(C)C(=O)[C@H](Cc2ccc(C(F)(F)F)cc2)N2C[C@H](C)[C@H](C)C[C@@H](C2=O)N(C)C(=O)CN(C)C1=O [PP1364]	7.1 nM	A (a compound having 10 or more and less than 20 is denoted as A)	B (a compound having 3 or more and less than 10 is denoted as B)
